Data set [1] deals with T1, SACOL2570 (putative galactoside O-acetyltransferase) (Staphylococcus aureus, UniProt Q5HCZ5). Briefly: ITC, […] stoichiometry. Type of data set: binding. On the technique in general: In ITC the heat of successive injections is recorded.
The target of data set [2] is T1, SACOL2570 (putative galactoside O-acetyltransferase). Briefly: crystal structure. The data set is classed as binding.
The data set “crystal structure” deals with the molecule itself. Briefly: crystal structure.

The source of these data is article PMC3923901 (Journal of structural and functional genomics, 2013).

By Kd is commonly meant the constant that tells how readily two partners part at equilibrium. Consider `CC(=O)SCCNC(=O)CCNC(=O)[C@H](O)C(C)(C)COP(=O)(O)OP(=O)(O)OC[C@H]1O[C@@H](n2cnc3c(N)ncnc32)[C@H](O)[C@@H]1OP(=O)(O)O` [AcCoA], for which the dissociation constant (Kd) in data set [1] was determined as 460 ± 35 µM.

Molecule `CC(C)(COP(=O)(O)OP(=O)(O)OC[C@H]1O[C@@H](n2cnc3c(N)ncnc32)[C@H](O)[C@@H]1OP(=O)(O)O)[C@@H](O)C(=O)NCCC(=O)NCCS` [CoA] gave a dissociation constant (Kd) in data set [2] of 660 ± 13 µM.

B1: putative galactoside O-acetyltransferase SACOL2570 from Staphylococcus aureus subsp. COL (enzyme)
chain: MTEKEKMLAEKWYDANFDQYLINERARAKDICFELNHTRPSATNKRKELIDQLFQTTTDNVSISIPFDTDYGWNVKLGKNVYVNTNCYFMDGGQITIGDNVFIGPNCGFYTATHPLNFHHRNEGFEKAGPIHIGSNTWFGGHVAVLPGVTIGEGSVIGAGSVVTKDIPPHSLAVGNPCKVVRKIDNDLPSETLNDETIK
modifications: selenomethionine (Se-Met-SACOL2570) in the protein of the apo crystals (PDB 3FTT) only
A word on the stoichiometry N: it is a count of units in the complex or per binding partner. Consider B1, for which, in the data set “crystal structure”, the “stoichiometry N” value turned out to be 3.
